In patent US7820667B2, “Methods of treating hypertension” (Daiichi Sankyo Company, Limited, priority 2005, dated 2010):

Columns and labels:
[1] = as reported in Japanese Patent Public Disclosure No. 25323/84; cited from earlier work
rats = assay: Acute toxicity to rats; assay type: in vivo
e-NOS mRNA = assay: Measurement of NOS mRNA expression in renal tissues (RT-PCR, Southern hybridization); assay type: in vivo, Sprague-Dawley rats; settings: renal cortex, DOCA+BH4 group as compared with DOCA group, normalized against MDH, FIG. 4
Description: (§1) One kidney was removed from each of 8-week-old Sprague-Dawley rats (supplied from Charles River) except for a control group.
Extraction of RNA from renal tissues was performed by the guanidium/cesium chloride extraction method.
Namely, a small amount of tissues collected from renal cortex of the isolated kidney was added immediately to a lysis solution 4M guanidinium thiocyanate and homogenized by a glass/Teflon homogenizer. This lysate was overlaid on 5.7M cesium chloride and centrifuged at 80,000 rpm for 2 hours, then the precipitate was dissolved in 0.1% diethyl pyrocarbonate (DEP) solution. This solution was precipitated with 2.5M ammonium acetate and ethanol at −20° C. for one hour and centrifuged at 10,000 rpm at 4° C. for 20 minutes to give a precipitate. […]
Specifically, the RT reaction solution was added to a mixture of 5′- and 3′-primers for each of e-NOS to be detected and for malate dehyadrogenase (MDH) used as an internal standard, PCR buffer, 2.5 mM dNTP mixed solution and Taq DNA polymerase. […]
PCR products were electrophoresed on 5% polyacrylamide gel and NOS mRNA expression was measured by Southern hybridization.
Specifically, the PCR reaction solution was electrophoresed on 5% polyacrylamide and then, the gel was transferred to membrane filters. […] Then, autoradiography was run at −70° C. for several hours and the exposed autoradiograms were analyzed by a densitometer. […]

[2] = system: DOCA-salt hypertension rats; assay: Biopterin (BP) in urine by HPLC in DOCA-salt hypertension rats; assay type: in vivo, Sprague-Dawley rats; settings: BH4 10 mg/kg b.w./day orally
From the text: as §1

DOCA-salt SHRs [3] = assay: Blood pressure by tail-cuff method in DOCA-salt SHR; assay type: in vivo; settings: BH4 10 mg/kg b.w./day orally
Description: Blood pressure was measured by the tail-cuff method at the start of experiments and after 2, 3, 4, 5 and 6 weeks.

DOCA-salt SHRs [4] = assay: Histopathological findings in renal tissues of DOCA-salt SHR; assay type: in vivo
From the text: After collecting urine and measuring blood pressure at 6 weeks, the animals was incised under anesthesia, exsanguinated from abdominal aorta and perfused with physiological saline via this site. The isolated kidney was fixed in a 10% formaldehyde solution, embedded in paraffin, then sliced to 4 μm in thickness by a microtome. Samples were stained with hematoxylin/eosin (HE) and periodic acid-Shiff. The incidences of histopathological findings on necrotizing glomerulitis and necrotizing arteriolitis were compared among the groups.

endothelial NOS (e-NOS) = assay: Immunostaining of renal tissue NOS (anti-e-NOS antibody); assay type: in vivo, Sprague-Dawley rats; settings: renal tissues, DOCA-salt hypertension rats, BH4 10 mg/kg b.w./day orally, end of observation (5 weeks)
From the text: as §1
(§2) The expression of endothelial NOS (e-NOS) and brain NOS (b-NOS) in renal tissues was examined in the sections of the isolated frozen renal tissues by immunostaining with anti-e-NOS and anti-b-NOS antibodies (Affinity Bioreagents), respectively.

[5] = system: DOCA-salt hypertension rats; assay: NO2/NO3 in urine (Griess method) in DOCA-salt hypertension rats; assay type: in vivo, Sprague-Dawley rats; settings: BH4 10 mg/kg b.w./day orally
Description: One kidney was removed from each of 8-week-old Sprague-Dawley rats (supplied from Charles River) except for a control group. […] The measurement was carried out using Nitrate-Nitrite assay kit, (kit No. 780001, Cyman Chemical Company) according to the Griess method. The values of NO2/NO3 in urine means the activity of NOS, namely, higher the value, higher the activity.

brain NOS (b-NOS) = assay: Immunostaining of renal tissue NOS (anti-b-NOS antibody); assay type: in vivo, Sprague-Dawley rats; settings: renal tissues, DOCA-salt hypertension rats, BH4 10 mg/kg b.w./day orally, end of observation (5 weeks)
From the text: as §1, §2

DOCA-salt SHRs [6] = settings: in vivo, po, 10 mg/kg/day
Description: One kidney was removed from 8-week old SHRs (supplied from Charles River) except for a control group. Then, the animals were divided into the following three experimental groups. • 1) A group given drinking water only (control group); sample size n=8; • 2) A group of DOCA-salt SHRs prepared by giving 30 mg/kg b.w. of deoxycorticosterone acetate (DOCA) subcutaneously once a week and 1% saline as drinking water from one week after nephrectomy (DOCA group); n 4; • 3) A group of DOCA-salt SHRs administered BH4 (10 mg/kg b.w./day) orally (DOCA+BH4 group); n=6.
Urine was collected for 24 hours using a metabolic cage at the start of experiment and after 2, 3, 4, 5 and 6 (at the termination of the observation period) weeks. At the termination of the observation period, blood sample was collected from abdominal aorta under anesthesia with Phenobarbital.
Biopterin (BP), a metabolite of BH4, was measured by a HPLC according to the procedure of Fukushima and Nixon. The effects of BH4 administration are evaluated on the basis of change of BP level in urine.
The measured values were expressed as means±standard error and evaluated statistically using two-way ANOVA test. In the following analyses, the significant level sets p<0.05.

[7] = system: DOCA-salt hypertension rats; assay: Blood pressure by tail-cuff method in DOCA-salt hypertension rats; assay type: in vivo, Sprague-Dawley rats; settings: BH4 10 mg/kg b.w./day orally
Description: One kidney was removed from each of 8-week-old Sprague-Dawley rats (supplied from Charles River) except for a control group. […] Blood pressure was measured by the tail-cuff method at the start of experiment and 2, 4 and 5 weeks.

[8] = Body weight of DOCA-salt hypertension rats; assay type: in vivo, Sprague-Dawley rats; settings: for Body weight: DOCA-salt hypertension rats, BH4 10 mg/kg b.w./day orally
From the text: as §1

[9] = until termination of observation period
[10] = BH4 10 mg/kg b.w./day orally, kidney at 6 weeks

Compound: C[C@H](O)[C@H](O)C1CNc2nc(N)[nH]c(=O)c2N1 (stereo partly drawn) [(6R,S)-5,6,7,8-tetrahydrobiopterin]
- toxicity [1]: only slightly toxic

Compound: C[C@H](O)[C@H](O)[C@H]1CNc2[nH]c(N)nc(=O)c2N1.Cl.Cl [BH4 dihydrochloride]
- acute toxicity (rats): more than 2 g/kg (b.w.)

Compound: CC(O)C(O)C1CNc2nc(N)[nH]c(=O)c2N1 [BH4, (6R)-L-erythro-5,6,7,8-tetrahydrobiopterin]
- expression of e-NOS mRNA (e-NOS mRNA): significantly enhanced
- Change of BP in urine (in words) [2]: showed an increase in the value of BP with time
- Blood pressure (DOCA-salt SHRs [3]; Start): 130.22 mmHg
- Blood pressure (DOCA-salt SHRs [3]; Week 2): 133.60 mmHg
- Blood pressure (DOCA-salt SHRs [3]; Week 3): 143.63 mmHg
- Blood pressure (DOCA-salt SHRs [3]; Week 4): 150.90 mmHg
- Blood pressure (DOCA-salt SHRs [3]; Week 5): 159.30 mmHg
- Blood pressure (DOCA-salt SHRs [3]; Week 6): 162.95 mmHg
- Change of blood pressure (in words) (DOCA-salt SHRs [3]; [9]): showed the same blood pressures level as that of the control group
- Percentage (%) of incidences of histopathological findings in renal tissues: Necrotizing angiitis (DOCA-salt SHRs [4]; [10]): 3.34 ± 0.94%
- Percentage (%) of incidences of histopathological findings in renal tissues: Necrotizing glomerulitis (DOCA-salt SHRs [4]; [10]): 2.47 ± 1.07%
- Histopathological findings (in words) (DOCA-salt SHRs [4]; oral administration of BH4): remarkably improved histopathological findings
- expression of e-NOS in small vessels (immunostaining) (endothelial NOS (e-NOS)): comparable to the control group or slightly enhanced
- Change of NO2/NO3 in urine (in words) [5]: showed an increase in the value
- NO2/NO3 in urine ([5]; Start): 2.22 ± 0.7 µmol/day
- NO2/NO3 in urine ([5]; Week 4): 2 ± 0.55 µmol/day
- NO2/NO3 in urine ([5]; Week 5): 5.95 ± 1.9 µmol/day
- expression of b-NOS in macula densa (immunostaining) (brain NOS (b-NOS)): comparable to the control group or slightly enhanced
- Change of BP in urine (in words) (DOCA-salt SHRs [6]): showed an increase in the value of BP with time
- Blood pressure ([7]; Start): 105.72 mmHg
- Blood pressure ([7]; Week 2): 120.54 mmHg
- Blood pressure ([7]; Week 4): 111.91 mmHg
- Blood pressure ([7]; Week 5): 107.78 mmHg
- Change of blood pressure (in words) [7, 9]: stayed at normal blood pressures
- Body weight ([8]; Start): 383.40 g
- Body weight ([8]; Week 2): 386.40 ± 12.84 g
- Body weight ([8]; Week 4): 431.20 ± 13.31 g
- Body weight ([8]; Week 5): 446.80 ± 15.81 g
- Body weight (in words) ([8]; control, DOCA and DOCA+BH4 groups compared): no significant difference
